Measurements published in patent publication US6713607B2 (Wyeth, priority 1994, dated 2004).

Tests used:
[1] = target: 210 kDa Protein (Homo sapiens, UniProt P42345); test: Modified isolation procedure: no exogenous FKBP, streptavidin-conjugated resin in place of glutathione resin; assay type: binding
[2] = tested on: mitogen-stimulated thymocyte proliferation; test: LAF, mitogen-stimulated thymocyte proliferation assay; assay type: cell-based, murine
[3] = target: FKBP12 (Homo sapiens, UniProt P62942); test: Inhibition of PPIase activity of FKBP12; assay type: biochemical; settings: read-out: PPlase(Ki)
[4] = target: T1, 210 kDa Protein (Homo sapiens, UniProt P42345+P62942); test: Affinity isolation of the 210 kDa protein from Molt 4 membrane preparations with GST-FKBP12 complexed to rapamycin or analog (binding of analog-FKBP12 complexes); settings: isolation procedure of Example 1, Molt 4 cells
T1 construct: These proteins are isolated from membrane preparations of Molt 4 T cell leukemia; endogenous in cells; host or cells: Molt 4 cells (CHAPSO-solubilized membrane fraction); The partner GST-FKBP12 was made in house in recombinant E. coli (pGEX-FKBP)
T1 sequence (P62942 whole entry, other chains not shown): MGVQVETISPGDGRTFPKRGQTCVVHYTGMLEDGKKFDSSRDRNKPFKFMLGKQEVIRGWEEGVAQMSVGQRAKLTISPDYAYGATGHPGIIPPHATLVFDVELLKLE
Protocol: Molt 4 cells (1×10^9) were grown in standard media (RPMI 1640 containing 100 U/ml pennicillin, 100 ug/ml L-glutamine, 10% FCS). The cells were harvested and rinsed 3× with PBS (50 mM phosphate buffer, pH 7.0, 150 mM NaCl), flash frozen in dry-ice ethanol bath and stored at −80° C. On ice, the cells were thawed and lysed using a dounce homogenizer with B pestle in 5 ml of buffer A (10 mM Hepes, pH 7.5, 20 mM KCl, 1 mM EDTA, 0.4 mM PMSF and 2 mM 2-ME). After the debris was cleared by centrifugation at 1600 g for 10 min. and the membrane fraction was concentrated by 100,000 g centrifugation (1 hour), the 100,000 g pellet was incubated in 3 ml buffer B (50 mM Tris, pH 7.2, 100 mM NaCl, 20 mM KCl, 0.2 mM PMSF, 1 mM 2-ME, 2 mM CaCl2, 2 mM MgCl2, 5 μg/ml aprotinin, leupeptin, pepstatin A and antipain), containing 12 mM CHAPSO for two hours at 4° C. The solubilized membrane proteins were separated from the debris by a 100,000 g centrifugation. […] The supernatant was then incubated for 2 hours at 4° C. with 100 ul glutathione resin (1:1 Buffer B). Nonspecific proteins were rinsed 5× with buffer C (buffer B+0.1% Triton×100) and the proteins eluted from the resin in Laemli buffer by incubation at 95° C. for 3 minutes and microcentrifugation. The proteins were separated by size using a 7% SDS-PAGE followed by silver stain.

FKBP12, sequence (P62942 whole entry, species assumed): as the sequence (P62942 whole entry, other chains not shown) above

## COC1CC2CCC(C)C(O)(O2)C(=O)C(=O)N2CCCCC2C(=O)OC(C(C)CC2CCC(OC(=O)CNC(=O)CCCCC3SCC4NC(=O)NC43)C(OC)C2)CC(=O)C(C)C=C(C)C(O)C(OC)C(=O)C(C)CC(C)C=CC=CC=C1C (stereo not shown) [rapamycin-42-biotin glycinate ester]
[1]
  210 kDa protein isolated by modified procedure (in words): Only background levels
[2]
  immunosuppressive activity in the LAF assay (in words): equivalent immunosuppressive activity

## C=CC[C@@H]1/C=C(\C)C[C@H](C)C[C@H](OC)[C@H]2O[C@@](O)(C(=O)C(=O)N3CCCC[C@H]3C(=O)O[C@H](/C(C)=C/[C@@H]3CC[C@@H](O)[C@H](OC)C3)[C@H](C)[C@@H](O)CC1=O)[C@H](C)C[C@@H]2OC [FK506]
[2]; Mus musculus, Thymocyte
  IC50: 3 nM

## COC1CC2CCC(C)C(O)(O2)C(=O)C(=O)N2CCCCC2C(=O)OC(C(C)CC2CCC(O)C(OC)C2)CC(=O)C(C)/C=C(\C)C(O)CC(=O)C(C)CC(C)/C=C/C=C/C=C/1C (stereo not shown) [demethoxyrapamycin]
[3]
  Ki: 4.4 nM
[2]; mitogen-stimulated thymocyte proliferation, FK506: mechanism of action is different
  IC50: 58 nM
[4]
  210 kDa protein isolated with compound:GST-FKBP12 complex (in words): same proteins were isolated

## CO[C@H]1C[C@@H]2CC[C@@H](C)[C@@](O)(O2)C(=O)C(=O)N2CCCC[C@H]2C(=O)O[C@H]([C@H](C)C[C@@H]2CC[C@@H](O)[C@H](OC)C2)CC(=O)[C@H](C)/C=C(\C)[C@@H](O)[C@@H](OC)C(=O)[C@H](C)C[C@H](C)/C=C/C=C/C=C/1C [RAPA, Rapamycin]
[2]; Mus musculus, Thymocyte
  IC50: 6 nM
